{"source": "patent US20260325520A1", "about": "“METHODS FOR TREATING OR PREVENTING NEUROENDOCRINE TUMR FORMATION USING CDC7 INHIBITORS” (Memorial Sloan-Kettering Cancer Center, priority 2022, published 2026)", "assay_type_in_all_cases": "cell-based", "key": {"[1]": {"tested_on": "SCLC cell lines (control and CDC7 KO)", "assay": "Viability of control and CDC7 CRISPR-Cas9 KO cell lines treated with simurosertib", "settings": "GI50 concentration", "description": "(§1) FIG. 1A: CDC7 mRNA expression in cell lines derived from different tumor types. The data was obtained from CCLE through UCSC Xenabrowser portal (https://xenabrowser.net/) in December 2020. Lines indicate the median CDC7 mRNA expression in SCLC cell lines. FIG. 1B: CDC7 protein expression assessed by IHC in NSCLC (N=58) and SCLC (N=45) clinical samples. Protein expression is shown as IHC score. H-score medians and standard deviation are shown. FIG. 1C: Western blot showing CDC7 KO in H82 (SCLC-N) and H146 (SCLC-A) SCLC cell lines. Proliferation (FIG. 1D) and soft agar colony formation (FIG. 1E) assays in isogenic H82 and H146 cell lines with CDC7 KO. In FIG. 1D, lower line graphs correspond to CDC7 KO (sgCDC7). FIG. 1F: Ectopic overexpression of CDC7 in H69 (SCLC-A) and DMS114 (SCLC-Y) SCLC cell lines. Proliferation (FIG. 1G) and soft agar colony formation (FIG. 1H) assays in isogenic H69 and DMS114 cell lines with ectopic CDC7 overexpression. […] FIG. 1I: Bivariate correlation of CDC7 mRNA and protein expression with simurosertib or LY3143921 sensitivity (assessed as growth inhibition) in an array of SCLC cell lines. Correlation was calculated with Spearman's test. […]\n(§2) Cytotoxic assays were performed as described in ^19. […] Viability was assessed with the CellTiter-Glo 2.0 Assay (Promega, G9242) as indicated by manufacturer."}, "SCLC cell lines": {"tested_on": "SCLC cell lines", "assay": "Growth inhibition of SCLC cell lines by CDC7 inhibitors, correlation with CDC7 mRNA and protein expression", "settings": "array of SCLC cell lines, Spearman's test", "description": "as §1\nCytotoxic assays were performed as described in ^19. […] Viability was assessed with the CellTiter-Glo 2.0 Assay (Promega, G9242) as indicated by manufacturer. […]"}, "22PC (PRAD) cells": {"tested_on": "22PC (PRAD) cells", "assay": "Viability of control and TP53/RB1-loss 22PC cells treated with simurosertib", "settings": "0.5 μM; double TP53/RB1 loss versus control or single gene loss", "description": "CDC7 mRNA (FIG. 3A) and protein (FIG. 3B) expression in lung tumor clinical specimens, categorized as control never transformed adenocarcinomas (LUAD), transforming adenocarcinomas (T-LUAD) and small cell carcinomas (T-SCLC) and control de novo small cell carcinomas (SCLC). For FIG. 3B, H-score medians and standard deviation are shown. FIG. 3C: CDC7 mRNA expression in PRAD tumors with or without NE features. Data from Abida et al., PNAS 2019. FIG. 3D: CDC7 protein expression in PRAD and NEPC clinical specimens, as assessed by IHC. H-score medians and standard deviation and representative images (FIG. 3E) are shown. […] FIG. 3G: In vivo treatment of Lx1042 (T-SCLC) and LuCAP49 (NEPC) PDXs was conducted to compare the efficacy of the combination of cisplatin and simurosertib versus that of cisplatin and etoposide. Student's t-test was performed to assess statistical significance (two-tailed, assuming heterogeneous value distribution) p-value legend: *<0.05, **<0.01, ***<0.001. FIG. 3H: CDC7 mRNA expression in adenocarcinoma clinical specimens, categorized by their TP53/RB1 status. Data obtained from LUAD TCGA (PanCancer), LUAD OncoSG (OncoSG, Nat Genetics 2020) and PRAD TCGA (PanCancer). […]\nas §2"}}}
{"compound": "Cc1n[nH]cc1-c1cc2nc([C@@H]3CC4CCN3CC4)[nH]c(=O)c2s1", "note": "[simurosertib]", "values": [{"measurement": "simurosertib sensitivity of CDC7 KO cells", "setting": "[1]", "result": "CDC7 KO rendered the cells resistant to simurosertib"}, {"measurement": "sensitivity correlation with CDC7 mRNA and protein expression", "setting": "SCLC cell lines", "result": "correlated with CDC7 mRNA and protein expression"}, {"measurement": "simurosertib sensitivity", "setting": "22PC (PRAD) cells", "result": "increased simurosertib sensitivity"}]}
